Experimental data as given in patent US20250320213A1, “Nitrogen-Containing Heterocyclic Compounds” (Pfizer Inc., priority 2024, published 2025).
Where two headings read alike, the source gives them in different places.

Columns and labels:
STAT6 = target: T1, STAT6 (Homo sapiens, UniProt P42226); experiment: STAT6 Reporter Luciferase Assay (IL-13 stimulated HaCaT keratinocyte NanoLuc reporter cells); type: cell-based; settings: read-out: Reporter EC50
T1 construct: stably transfected HaCaT keratinocyte cell line, which expresses NanoLuc luciferase reporter gene under the transcriptional control of the STAT6 responsive promoter; endogenous in cells; host or cells: HaCaT keratinocyte reporter cell line (stably transfected with a NanoLuc reporter)
T1 sequence (P42226 1-847): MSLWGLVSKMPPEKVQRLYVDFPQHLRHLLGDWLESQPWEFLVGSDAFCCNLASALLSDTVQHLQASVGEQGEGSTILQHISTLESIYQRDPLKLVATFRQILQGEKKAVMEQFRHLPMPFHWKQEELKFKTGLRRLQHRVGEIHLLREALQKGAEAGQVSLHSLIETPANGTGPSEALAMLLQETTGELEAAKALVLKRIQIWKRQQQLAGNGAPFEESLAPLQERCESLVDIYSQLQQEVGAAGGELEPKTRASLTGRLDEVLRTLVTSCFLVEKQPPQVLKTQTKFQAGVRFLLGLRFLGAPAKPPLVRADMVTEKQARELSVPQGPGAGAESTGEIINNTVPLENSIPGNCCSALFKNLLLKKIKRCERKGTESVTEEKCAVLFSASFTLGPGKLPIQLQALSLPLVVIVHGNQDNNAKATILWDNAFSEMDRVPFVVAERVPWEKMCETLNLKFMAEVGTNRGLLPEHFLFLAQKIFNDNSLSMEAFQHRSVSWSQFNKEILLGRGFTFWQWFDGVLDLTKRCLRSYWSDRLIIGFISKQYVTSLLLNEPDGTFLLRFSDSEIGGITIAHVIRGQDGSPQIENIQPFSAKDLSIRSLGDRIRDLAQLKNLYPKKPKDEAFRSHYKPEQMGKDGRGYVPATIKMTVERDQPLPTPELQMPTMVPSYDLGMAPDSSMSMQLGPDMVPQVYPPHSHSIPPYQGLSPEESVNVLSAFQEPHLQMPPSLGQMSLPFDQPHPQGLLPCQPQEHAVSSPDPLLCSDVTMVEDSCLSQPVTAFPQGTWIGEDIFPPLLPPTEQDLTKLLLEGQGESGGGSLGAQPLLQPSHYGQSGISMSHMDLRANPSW
In short: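 HaCaT IL-13Ra2-promoter NanoLuc reporter; cpd 2 h 37 °C in DMEM/2% HI FBS; IL-13 0.12 nM final, 4 h; Nano-Glo luminescence.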

[1] = tested on: CCL17 secretion in peripheral human whole blood; experiment: Human Whole Blood (HWB) CCL17 TR-FRET Assay (IL-13 stimulated CCL17 secretion); type: cell-based
In short: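 Heparinized human whole blood was preincubated with compound (11-point, 3-fold series) for 2 h at 37°C, then stimulated with IL-13 (10 ng/mL final) for 48 h. Serum CCL17 was measured by TR-FRET sandwich immunoassay (665/615 nm ratio) after 16 h at room temperature, giving IC50.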

[2] = IL-13 stimulated HaCaT STAT6 NanoLuc reporter cells
[3] = Homo sapiens, 48 h, human whole blood, IL-13 stimulated
[4] = STAT6 NanoLuc luciferase reporter, IL-13 stimulated HaCaT keratinocyte cells
[5] = Homo sapiens, 48 h, inhibition of CCL17 secretion in human whole blood, 10 ng/mL IL13, 48 hours
[6] = human whole blood, 10 ng/mL IL13, 48 hours
[7] = Homo sapiens, 48 h, human whole blood, 10 ng/mL IL13, 48 hours

CCn1nc(C(=O)NCc2ccc(NC(=O)N(C)C)cc2)c2c1C(C)(C)CN(c1ccc(C(=O)N(C)C)cn1)C2 [Example 238, 5-(5-(dimethylcarbamoyl)pyridin-2-yl)-N-(4-(3,3-dimethylureido)benzyl)-1-ethyl-7,7-dimethyl-4,5,6,7-tetrahydro-1H-pyrazolo[4,3-c]pyridine-3-carboxamide]
EC50 (STAT6; [2]): 2 nM | IC50 [1, 3]: 9 nM

CC(C)n1nc(C(=O)NCc2ccc(NC(=O)N3CC[C@H](N(C)C)C3)cc2)c2c1CCN(c1ccc(C(=O)N(C)C)cn1)C2 [Example 170, (S)-N-(4-(3-(dimethylamino)pyrrolidine-1-carboxamido)benzyl)-5-(5-(dimethylcarbamoyl)pyridin-2-yl)-1-isopropyl-4,5,6,7-tetrahydro-1H-pyrazolo[4,3-c]pyridine-3-carboxamide]
EC50 (STAT6; [4]): 17 nM | IC50 [1, 5]: 82 nM

CN(C)C(=O)Nc1ccc(CNC(=O)c2nn(CCC#N)c3c2CN(c2ccc(C(=O)N(C)C)cn2)CC3)cc1 [Example 308, 1-(2-cyanoethyl)-5-(5-(dimethylcarbamoyl)pyridin-2-yl)-N-(4-(3,3-dimethylureido)benzyl)-4,5,6,7-tetrahydro-1H-pyrazolo[4,3-c]pyridine-3-carboxamide]
EC50 (STAT6; [2]): 287 nM | IC50 [1, 3]: 718 nM

CCn1nc(C(=O)NCc2ccc(-c3ncc[nH]3)cc2)c2c1CCN(c1ccc(C(=O)N(C)C)cn1)C2 [Example 21, N-(4-(1H-imidazol-2-yl)benzyl)-5-(5-(dimethylcarbamoyl)pyridin-2-yl)-1-ethyl-4,5,6,7-tetrahydro-1H-pyrazolo[4,3-c]pyridine-3-carboxamide]
EC50 (STAT6; [4]): 33 nM | IC50 [1, 5]: 217 nM

CC[C@H]1c2c(C(=O)NCc3ccc(NC(=O)N(C)C)cc3)nn(C(C)C)c2CCN1c1ccc(C(=O)N(C)C)cn1 (single isomer, unassigned) [Example 527]
EC50 (STAT6; [2]): 8870 nM | IC50 [1, 6]: > 25100 nM

CC(C)n1nc(C(=O)NCc2ccc(NC(=O)N(C)C)cc2)c2c1C(C(F)(F)F)CN(c1ccc(C(=O)N(C)C)cn1)C2 (single isomer, unassigned) [Example 547, rel-(R or S)-5-(5-(Dimethylcarbamoyl)pyridin-2-yl)-N-(4-(3,3-dimethylureido)benzyl)-1-isopropyl-7-(trifluoromethyl)-4,5,6,7-tetrahydro-1H-pyrazolo[4,3-c]pyridine-3-carboxamide]
EC50 (STAT6; [2]): 0.2 nM | IC50 [1, 6]: 3 nM

CN(C)C(=O)Nc1ccc(CNC(=O)c2nn(CC(F)(F)F)c3c2CN(c2ccc(C(=O)N(C)C)cn2)CC3)cc1 [Example 31, 5-(5-(dimethylcarbamoyl)pyridin-2-yl)-N-(4-(3,3-dimethylureido)benzyl)-1-(2,2,2-trifluoroethyl)-4,5,6,7-tetrahydro-1H-pyrazolo[4,3-c]pyridine-3-carboxamide]
EC50 (STAT6; [4]): 7 nM | IC50 [1, 5]: 85 nM

CC(C)n1nc(C(=O)NCc2ccc(NC(=O)N(C)[C@H]3CCOC3)cc2)c2c1CCN(c1ccc(C(=O)N(C)C)cn1)C2 [Example 187, (S)-5-(5-(dimethylcarbamoyl)pyridin-2-yl)-1-isopropyl-N-(4-(3-methyl-3-(tetrahydrofuran-3-yl)ureido)benzyl)-4,5,6,7-tetrahydro-1H-pyrazolo[4,3-c]pyridine-3-carboxamide]
EC50 (STAT6; [2]): 15 nM | IC50 [1, 3]: 41 nM

CC(C)n1nc(C(=O)NCc2ccc(NC(=O)N(C)C)cc2)c2c1[C@@H](C)CN(c1ncc(C(=O)N3Cc4cccnc4C3)cn1)C2 [Example 346, (S)-5-(5-(6,7-dihydro-5H-pyrrolo[3,4-b]pyridine-6-carbonyl)pyrimidin-2-yl)-N-(4-(3,3-dimethylureido)benzyl)-1-isopropyl-7-methyl-4,5,6,7-tetrahydro-1H-pyrazolo[4,3-c]pyridine-3-carboxamide]
EC50 (STAT6; [2]): 2 nM | IC50 [1, 3]: 13 nM

CC(C)n1nc(C(=O)NCc2ccc(NC(=O)N3CCN4CCC[C@@H]4C3)cc2)c2c1[C@@H](C)CN(c1ccc(C(=O)N(C)C)cc1)C2 [Example 574, (S)-5-(4-(dimethylcarbamoyl)phenyl)-1-isopropyl-7-methyl-N-(4-((R)-octahydropyrrolo[1,2-a]pyrazine-2-carboxamido)benzyl)-4,5,6,7-tetrahydro-1H-pyrazolo[4,3-c]pyridine-3-carboxamide]
EC50 (STAT6; [2]): 0.5 nM | IC50 [1, 7]: 11 nM

CNC(=O)c1ccc(CNC(=O)c2nn(C(C)C)c3c2CN(c2ccc(C(=O)N(C)C)cn2)CC3C(F)(F)F)cc1 (single isomer, unassigned) [Example 357, rel-(R or S)-5-(5-(dimethylcarbamoyl)pyridin-2-yl)-1-isopropyl-N-(4-(methylcarbamoyl)benzyl)-7-(trifluoromethyl)-4,5,6,7-tetrahydro-1H-pyrazolo[4,3-c]pyridine-3-carboxamide]
EC50 (STAT6; [2]): 1 nM | IC50 ([1]; human whole blood, IL-13 stimulated, 48 hours): 20 nM

CNC(=O)c1ccc(CNC(=O)c2nn(C(C)C)c3c2CN(c2ccc(C(=O)N(C)C)cc2)C[C@@H]3C)cc1 [Example 605, (S)-5-(4-(dimethylcarbamoyl)phenyl)-1-isopropyl-7-methyl-N-(4-(methylcarbamoyl)benzyl)-4,5,6,7-tetrahydro-1H-pyrazolo[4,3-c]pyridine-3-carboxamide]
EC50 (STAT6; [2]): 4 nM | IC50 [1, 7]: 37 nM

CC(C)n1nc(C(=O)NCc2ccc(NC(=O)N(C)C)cc2)c2c1[C@@H](C)CN(c1ccc(C(=O)N(C)C)cn1)[C@@H]2C (single isomer, unassigned) [Example 529]
EC50 (STAT6; [2]): 0.1 nM | IC50 [1, 7]: 4 nM

CCn1nc(C(=O)NCc2ccc(C(=O)NC)cc2)c2c1[C@@H](C)CN(c1ccc(C(=O)N(C)C)cn1)C2 [Example 284, (S)-5-(5-(dimethylcarbamoyl)pyridin-2-yl)-1-ethyl-7-methyl-N-(4-(methylcarbamoyl)benzyl)-4,5,6,7-tetrahydro-1H-pyrazolo[4,3-c]pyridine-3-carboxamide]
EC50 (STAT6; [2]): 8 nM | IC50 [1, 3]: 40 nM

CCC1CN(c2ccc(C(=O)N(C)C)cn2)Cc2c(C(=O)NCc3ccc(NC(=O)N(C)C)cc3)n[nH]c21 (single isomer, unassigned) [Example 82, rel-(R or S)-5-(5-(dimethylcarbamoyl)pyridin-2-yl)-N-(4-(3,3-dimethylureido)benzyl)-7-ethyl-4,5,6,7-tetrahydro-1H-pyrazolo[4,3-c]pyridine-3-carboxamide]
EC50 (STAT6; [4]): 101 nM | IC50 ([1]; inhibition of CCL17 secretion in human whole blood, 10 ng/mL IL13, 48 hours): 112 nM

CC(C)c1nc(C(=O)NCc2ccc(NC(=O)N(C)C)cc2)c2n1CCN(c1ccc(C(=O)N(C)C)cn1)C2 [Example 32, 7-(5-(dimethylcarbamoyl)pyridin-2-yl)-N-(4-(3,3-dimethylureido)benzyl)-3-isopropyl-5,6,7,8-tetrahydroimidazo[1,5-a]pyrazine-1-carboxamide]
EC50 (STAT6; [4]): 9 nM | IC50 [1, 5]: 40 nM

C[C@H]1c2c(C(=O)NCc3ccc(NC(=O)N(C)C)cc3)nn(C)c2CCN1c1ccc(C(=O)N(C)C)cn1 (single isomer, unassigned) [Example 444]
EC50 (STAT6; [2]): 158 nM | IC50 [1, 3]: 1380 nM

CC(C)n1nc(C(=O)NCc2ccc(NC(=O)N3CCO[C@@H](CO)C3)cc2)c2c1CCN(c1ccc(C(=O)N(C)C)cn1)C2 [Example 167, (R)-N-(4-((5-(5-(dimethylcarbamoyl)pyridin-2-yl)-1-isopropyl-4,5,6,7-tetrahydro-1H-pyrazolo[4,3-c]pyridine-3-carboxamido)methyl)phenyl)-2-(hydroxymethyl)morpholine-4-carboxamide]
EC50 (STAT6; [4]): 29 nM | IC50 [1, 5]: 154 nM
